Results reported in ChEMBL document CHEMBL1201862, “PubChem BioAssay data set” (2004).
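Briefly, cells in 96-well plates were exposed to five compound concentrations for 48 h, and endpoints were estimated by linear interpolation. Here, GI50 denotes the concentration required for 50% inhibition of growth.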 The source made the active and inactive calls. No stated cut-off is given here; in the data, active = GI50 up to about 1.1 µM and inactive = higher.

Tests used:
Experiment in all cases: DTP human tumour cell line panel, 48 h
HCT-15 = system: HCT-15
SF-268 = system: SF-268
RXF 393 = system: RXF 393
SF-295 = system: SF-295
KM12 = system: KM12
IGROV-1 = system: IGROV-1
NCI-H460 = system: NCI-H460
HCC 2998 = system: HCC 2998
SNB-75 = system: SNB-75
OVCAR-4 = system: OVCAR-4
HT-29 = system: HT-29
LOX IMVI = system: LOX IMVI
SK-OV-3 = system: SK-OV-3
SN12C = system: SN12C
MDA-MB-231 = system: MDA-MB-231
UACC-62 = system: UACC-62
SNB-19 = system: SNB-19
EKVX = system: EKVX
UACC-257 = system: UACC-257
HOP-62 = system: HOP-62

SMILES	GI50 (HCT-15)	GI50 (SF-268)	GI50 (RXF 393)	GI50 (SF-295)	GI50 (KM12)	GI50 (IGROV-1)	GI50 (NCI-H460)	GI50 (HCC 2998)	GI50 (SNB-75)	GI50 (OVCAR-4)	GI50 (HT-29)	GI50 (LOX IMVI)	GI50 (SK-OV-3)	GI50 (SN12C)	GI50 (MDA-MB-231)	GI50 (UACC-62)	GI50 (SNB-19)	GI50 (EKVX)	GI50 (UACC-257)	GI50 (HOP-62)
CCCCCCCC/C=C1\CCC(CN2CCOCC2)C1=O (stereo not given)	3.09 µM	9.35 µM (inactive)	12.5 µM (inactive)	14.7 µM (inactive)	3.41 µM (inactive)	7.35 µM (inactive)	16.5 µM (inactive)	11.5 µM (inactive)	2.61 µM (inactive)	13.3 µM (inactive)	6.98 µM (inactive)	3.43 µM (inactive)	19.9 µM (inactive)	5.7 µM (inactive)	2.23 µM (inactive)	5.35 µM (inactive)	11.2 µM (inactive)	17.7 µM (inactive)	8.67 µM (inactive)	15.1 µM (inactive)
N=c1c2c3n(c4c(=O)n(-c5ccccc5)c(=S)n(c(=O)n1-c1ccccc1)c24)CCCCC3	> 100 µM	> 100 µM (inactive)	> 75.7 µM (inactive)	> 100 µM (inactive)	> 100 µM (inactive)	> 100 µM (inactive)	> 100 µM (inactive)	> 100 µM (inactive)	> 63.1 µM (inactive)	> 100 µM (inactive)	> 100 µM (inactive)	> 100 µM (inactive)	> 81.1 µM (inactive)	> 100 µM (inactive)	> 100 µM (inactive)	> 100 µM (inactive)	> 100 µM (inactive)	> 91.4 µM (inactive)	> 100 µM (inactive)	99.3 µM (inactive)
CCC(=O)/C=C/c1ccccc1	35.9 µM	94 µM (inactive)	73.3 µM (inactive)	73.5 µM (inactive)	14.6 µM (inactive)	76.9 µM (inactive)	70.3 µM (inactive)	63.1 µM (inactive)	> 100 µM (inactive)	95.9 µM (inactive)	43.7 µM (inactive)	22.8 µM (inactive)	31.3 µM (inactive)	43.2 µM (inactive)	> 100 µM (inactive)	37 µM (inactive)	44 µM (inactive)	> 100 µM (inactive)	72.6 µM (inactive)	> 100 µM (inactive)
O=S(=O)(Nc1nc2ccccc2nc1Nc1ccc2ccccc2c1)c1ccccc1	11.1 µM	17.9 µM (inactive)	20.4 µM (inactive)	5.07 µM (inactive)	6 µM (inactive)	9.59 µM (inactive)	7.53 µM (inactive)	7.1 µM (inactive)	26.5 µM (inactive)	4.67 µM (inactive)	11 µM (inactive)	17.8 µM (inactive)	7.78 µM (inactive)	10.4 µM (inactive)	26.4 µM (inactive)	4.67 µM (inactive)	9.42 µM (inactive)	11.7 µM (inactive)	26.1 µM (inactive)	10.7 µM (inactive)
C=C(COC(=O)C(C)C)[C@H]1Oc2ccc(C(C)=O)cc2[C@@H]1OC(=O)C(C)C	> 100 µM	> 100 µM (inactive)	> 100 µM (inactive)	> 100 µM (inactive)	> 100 µM (inactive)	> 100 µM (inactive)	> 100 µM (inactive)	> 100 µM (inactive)	> 100 µM (inactive)	> 100 µM (inactive)	> 100 µM (inactive)	> 100 µM (inactive)	> 100 µM (inactive)	> 100 µM (inactive)	> 100 µM (inactive)	> 100 µM (inactive)	> 100 µM (inactive)	> 100 µM (inactive)	> 100 µM (inactive)	> 100 µM (inactive)
Cc1cc(S(=O)(=O)Nc2nnc3c(Cl)cc(C(F)(F)F)cn23)c(S)cc1Cl	58.1 µM	> 79.3 µM (inactive)	> 100 µM (inactive)	71.8 µM (inactive)	39.3 µM (inactive)	50.5 µM (inactive)	41.8 µM (inactive)	44.8 µM (inactive)	4.88 µM (inactive)	66.5 µM (inactive)	37.2 µM (inactive)	> 86.3 µM (inactive)	44.9 µM (inactive)	> 96.6 µM (inactive)	> 59.3 µM (inactive)	48.9 µM (inactive)	25.1 µM (inactive)	75 µM (inactive)	> 100 µM (inactive)	54.5 µM (inactive)
Cc1ccc(C2(c3ccc(Cl)cc3)c3ccccc3C3=NCCN32)cc1 (stereo not given)	11.6 µM	15.1 µM (inactive)	2.31 µM (inactive)	1.59 µM (inactive)	10.7 µM (inactive)	2.15 µM (inactive)	6 µM (inactive)	5.58 µM (inactive)	12.2 µM (inactive)	1.83 µM (inactive)	1.89 µM (inactive)	12.8 µM (inactive)	6.08 µM (inactive)	15.1 µM (inactive)	5.7 µM (inactive)	7.1 µM (inactive)	13.7 µM (inactive)	14.1 µM (inactive)	6.55 µM (inactive)	9.68 µM (inactive)
O=c1cc(CNC2CCCC2)[nH]c(=O)[nH]1	> 100 µM	> 100 µM (inactive)	> 100 µM (inactive)	> 100 µM (inactive)	> 100 µM (inactive)	> 100 µM (inactive)	> 100 µM (inactive)	> 100 µM (inactive)	> 100 µM (inactive)	> 100 µM (inactive)	> 100 µM (inactive)	> 100 µM (inactive)	> 100 µM (inactive)	> 100 µM (inactive)	> 100 µM (inactive)	> 100 µM (inactive)	> 100 µM (inactive)	> 100 µM (inactive)	> 100 µM (inactive)	> 100 µM (inactive)
CCCC(C)c1c(Cl)nc(Cl)nc1Cl (stereo not given)	7.38 µM	10.3 µM (inactive)	10.6 µM (inactive)	18.5 µM (inactive)	2.47 µM (inactive)	14.7 µM (inactive)	11 µM (inactive)	5.18 µM (inactive)	14.5 µM (inactive)	17.1 µM (inactive)	11.4 µM (inactive)	1.66 µM (inactive)	20.2 µM (inactive)	7.94 µM (inactive)	9.27 µM (inactive)	> 10 µM (inactive)	18.2 µM (inactive)	18.3 µM (inactive)	11 µM (inactive)	8.36 µM (inactive)
COC(=O)[C@]1(c2cc3ccccc3[nH]2)CC2CN(CC(=O)N(C)OC)C1C1OC(C)(C)OC21 (stereo not given in full)	39.9 µM	> 100 µM (inactive)	45.8 µM (inactive)	36.1 µM (inactive)	29.6 µM (inactive)	59.3 µM (inactive)	39 µM (inactive)	38 µM (inactive)	> 100 µM (inactive)	36.9 µM (inactive)	61.9 µM (inactive)	59.7 µM (inactive)	> 100 µM (inactive)	55 µM (inactive)	31.6 µM (inactive)	61.7 µM (inactive)	92.9 µM (inactive)	63.5 µM (inactive)	32 µM (inactive)	83.9 µM (inactive)
Nn1c(Sc2nc3ccccc3c(=O)n2N)nc2ccccc2c1=O	3.37 µM	8.49 µM (inactive)	7.85 µM (inactive)	18.2 µM (inactive)	11.7 µM (inactive)	6.5 µM (inactive)	19.5 µM (inactive)	15.2 µM (inactive)	11.6 µM (inactive)	26.7 µM (inactive)	3.4 µM (inactive)	1.64 µM (inactive)	20.4 µM (inactive)	5.75 µM (inactive)	7.93 µM (inactive)	11.5 µM (inactive)	6.92 µM (inactive)	17.5 µM (inactive)	16.5 µM (inactive)	16.6 µM (inactive)
O=P1(Cc2ccccc2)N(Cc2ccccc2)[C@@H]2CCCC[C@H]2N1Cc1ccccc1	9.91 µM	11.1 µM (inactive)	9.51 µM (inactive)	6.59 µM (inactive)	5.86 µM (inactive)	6.18 µM (inactive)	8.07 µM (inactive)	8.89 µM (inactive)	6.79 µM (inactive)	3.01 µM (inactive)	5.32 µM (inactive)	12.2 µM (inactive)	13 µM (inactive)	10.4 µM (inactive)	10.6 µM (inactive)	7.74 µM (inactive)	10.6 µM (inactive)	9.62 µM (inactive)	6.41 µM (inactive)	15.5 µM (inactive)
